# Data reported in ChEMBL document CHEMBL4706679, “Targeting Necrosis: Elastase-like Protease Inhibitors Curtail Necrotic Cell Death Both In Vitro and in Three In Vivo Disease Models” (J Med Chem, 2021).
# Activity calls are given as the source filed them. The calls are words filed in the database; no cut-off is given here. Where a SMILES comes first, the peptide text is derived from it. The star is where a group is joined. MeOSuc = COC(=O)CCC(=O)*; Cbz = O=C(OCc1ccccc1)*; CH2Cl = ClC*
# Experiments:
# [1] = tested on: U-937; test: Inhibition anti-Fas antibody-induced elastase like activity in human U-937 cells at 100 uM by substrate gel electrophoresis; assay type: cell-based
# [2] = tested on: U-937; test: Inhibition oligomycin-induced elastase like activity in human U-937 cells at 100 uM by substrate gel electrophoresis; assay type: cell-based
# [3] = tested on: PC-12; test: Protection against KCN-induced necrosis in […] cells assessed as reduction in KCN-induced cell death at 20 to 100 uM incubated for 5 hrs by LDH release assay; assay type: functional, cell-based; details: dose 20-100 µM
# [4] = tested on: U-937; test: Inhibition KCN-induced elastase like activity in human U-937 cells using substrate MAAPV; assay type: cell-based
# [5] = tested on: Mus musculus; test: Protection against necrosis in C57BL/6J mouse model of paracetamol-induced […] assessed as reduction in liver GOT levels at 30 mg/kg, ip dosed 4 hrs after paracetamol injection and measured 24 hrs post paracetamol injection by; assay type: functional; parameters: scale not given: the % may be the effect or the level left; details: time 28 hrs
# [6] = tested on: Mus musculus; test: Protection against necrosis in C57BL/6J mouse model of paracetamol-induced […] assessed as reduction in liver GPT levels at 10 mg/kg, ip dosed 4 hrs after paracetamol injection and measured 24 hrs post paracetamol injection by; assay type: functional, organism-based; details: time 28.0 hrs
# [7] = tested on: Mus musculus; test: Protection against necrosis in C57BL/6J mouse model of paracetamol-induced […] assessed as reduction in liver AST levels at 30 mg/kg, ip dosed 4 hrs after paracetamol injection and measured 24 hrs post paracetamol injection by; assay type: functional; parameters: scale not given: the % may be the effect or the level left; details: time 28 hrs
# [8] = tested on: Mus musculus; test: Protection against necrosis in C57BL/6J mouse model of paracetamol-induced […] assessed as reduction in liver GOT levels at 10 mg/kg, ip dosed 4 hrs after paracetamol injection and measured 24 hrs post paracetamol injection by; assay type: functional, organism-based; details: time 28.0 hrs
# [9] = tested on: Mus musculus; test: Protection against necrosis in C57BL/6J mouse model of paracetamol-induced […] assessed as reduction in liver AST levels at 10 mg/kg, ip dosed 4 hrs after paracetamol injection and measured 24 hrs post paracetamol injection by; assay type: functional, organism-based; details: time 28.0 hrs
# [10] = tested on: Mus musculus; test: Protection against necrosis in C57BL/6J mouse model of paracetamol-induced […] assessed as reduction in liver GPT levels at 30 mg/kg, ip dosed 4 hrs after paracetamol injection and measured 24 hrs post paracetamol injection by; assay type: functional; parameters: scale not given: the % may be the effect or the level left; details: time 28 hrs
# [11] = tested on: Mus musculus; test: Protection against necrosis in C57BL/6J mouse model of paracetamol-induced […] assessed as reduction in liver ALT levels at 10 mg/kg, ip dosed 4 hrs after paracetamol injection and measured 24 hrs post paracetamol injection by; assay type: functional, organism-based; details: time 28.0 hrs
# [12] = tested on: Mus musculus; test: Protection against necrosis in C57BL/6J mouse model of paracetamol-induced […] assessed as reduction in liver ALT levels at 30 mg/kg, ip dosed 4 hrs after paracetamol injection and measured 24 hrs post paracetamol injection by; assay type: functional; parameters: scale not given: the % may be the effect or the level left; details: time 28 hrs
# [13] = tested on: Mus musculus; test: Protection against necrosis in Balb/c mouse model of model of myocardial infarction/reperfusion assessed as reduction in infarct size at 30 mg/kg, iv followed by ischemia and reperfusion and subsequent second dosing at 30 mg/kg, iv and measured after 6 hrs post reperfusion by TTC staining based analysis; assay type: functional; parameters: scale not given: the % may be the effect or the level left; details: dose 60 mg/kg
# [14] = tested on: PC-12; test: Protection against KCN-induced necrosis in […] cells assessed as reduction in KCN-induced cell death at 10 to 300 uM incubated for 5 hrs by LDH release assay; assay type: functional, cell-based; details: dose 10-300 µM
# [15] = (§1) Inhibition KCN-induced elastase like activity in human U-937 cells at 0.01 to 100 uM using substrate MAAPV; assay type: cell-based
# [16] = tested on: U-937; test: as §1; assay type: cell-based; details: dose 0.01-100 µM
# [17] = tested on: Mus musculus; test: Protection against necrosis in C57BL/6J mouse model of traumatic brain injury assessed as decrease in neuronal damage in brain at 100 ug, icv measured 1 hr post injury by neurological severity score based analysis; assay type: functional, organism-based; details: dose 100.0 µg
# [18] = tested on: Mus musculus; test: Protection against necrosis in C57BL/6J mouse model of traumatic brain injury assessed as decrease in necrotic space in brains at 100 ug, icv measured 24 hrs post injury by TTC staining based analysis; assay type: functional; parameters: scale not given: the % may be the effect or the level left; details: dose 100 µg
# [19] = Toxicity in sham control C57BL/6J mouse at 100 ug, icv; details: in vivo, icv_or_intrathecal, dose 100 µg
smiles,measurement,setting,value
Cc1ccc(S(=O)(=O)N[C@@H](Cc2ccccc2)C(=O)CCl)cc1,inhibition,[1],inactive
same,inhibition,[2],inactive
CC(C)(C)C(=O)Oc1ccc(S(=O)(=O)Nc2ccccc2C(=O)NCC(=O)O)cc1,Activity,[3],Dose-dependent effect
O=C[C@H](Cc1ccc(O)cc1)NC(=O)[C@H](Cc1ccccc1)NC(=O)OCc1ccccc1 (Cbz-Phe-Tyr-aldehyde),inhibition,[4],inactive
O=C(c1csc(N2CCCCC2)n1)N1CCCC1,Activity,[5],100%
same,Activity,[6],Active
same,Activity,[7],100%
same,Activity,[8],Active
same,Activity,[9],Active
same,Activity,[10],100%
same,Activity,[11],Active
same,Activity,[12],100%
CCC(=O)N1CCN=C1N1CCN(C)CC1,Activity,[13],30%
CC(C)C[C@H](NC(=O)N[C@H](C(=O)N[C@@H](CCC(N)=O)C(=O)N[C@@H](C)C=O)C1CCNC(=N)N1)C(=O)O (some centres undefined),inhibition,[1],Active
same,inhibition,[2],Active
same,Activity,[14],inactive
CN1C(=O)Cc2ccc(-c3ccc(C[C@@H](C#N)NC(=O)[C@H]4N[C@@H]5CC[C@H]4C5)c(F)c3)cc21,Activity,[14],Dose-dependent effect
CCOC(=O)[C@H]1O[C@@H]1C(=O)N[C@@H](CC(C)C)C(=O)NCCC(C)C,inhibition,[4],inactive
COC(=O)CCC(=O)N[C@@H](C)C(=O)N[C@@H](C)C(=O)N1CCC[C@H]1C(=O)N[C@H](C(=O)CCl)C(C)C (MeOSuc-AAPV-CH2Cl),IC50,[15],2740 nM
same,inhibition,[16],Dose-dependent effect
same,Activity,[17],Active
same,Activity,[14],Dose-dependent effect
same,Activity,[18],50%
same,Activity,[19],Non-Toxic
